The values below come from PubChem BioAssay AID192 (DTP/NCI, 2004).

For this test, the system named is BDF1 mice, B16 melanoma ip, median survival T/C. The test can be described thus: NCI In Vivo Anticancer Drug Screen. Data for tumor model B16 Melanoma (intraperitoneal) in B6D2F1 (BDF1) mice. The conditions noted are these: endpoint: median survival time, higher = longer survival. Put shortly: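 Mice with transplantable tumors; drug vs vehicle groups; endpoint survival or tumor size; value = T/C.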

Where [1] appears, read: dose: 12.5 mg/kg/injection, schedule: Q01DX009 (ip), vehicle: Klucel (hydroxypropylcellulose) (HPC).
Where [2] appears, read: dose: 25.0 mg/kg/injection, schedule: Q01DX009 (ip), vehicle: Klucel (hydroxypropylcellulose) (HPC).
Setting [3] is: dose: 50.0 mg/kg/injection, schedule: Q01DX009 (ip), vehicle: Klucel (hydroxypropylcellulose) (HPC).
Where [4] appears, read: dose: 50.0 mg/kg/injection, schedule: Q01DX009 (ip), vehicle: saline with Tween-80.
The mark [5] stands for this setting: dose: 100.0 mg/kg/injection, schedule: Q01DX009 (ip), vehicle: saline with Tween-80.
The mark [6] stands for this setting: dose: 200.0 mg/kg/injection, schedule: Q01DX009 (ip), vehicle: saline with Tween-80.
Setting [7] is: dose: 6.25 mg/kg/injection, schedule: Q01DX009 (ip), vehicle: Klucel (hydroxypropylcellulose) (HPC).
The mark [8] stands for this setting: dose: 400.0 mg/kg/injection, schedule: Q01DX009 (ip), vehicle: saline with Tween-80.
Setting [9] is: dose: 100.0 mg/kg/injection, schedule: Q01DX009 (ip), vehicle: Klucel (hydroxypropylcellulose) (HPC).
[10] abbreviates: dose: 200.0 mg/kg/injection, schedule: Q01DX009 (ip), vehicle: Klucel (hydroxypropylcellulose) (HPC).
[11] abbreviates: dose: 400.0 mg/kg/injection, schedule: Q01DX009 (ip), vehicle: Klucel (hydroxypropylcellulose) (HPC).
Where [12] appears, read: dose: 50.0 mg/kg/injection, schedule: Q01DX009 (ip), vehicle: saline.
Where [13] appears, read: dose: 100.0 mg/kg/injection, schedule: Q01DX009 (ip), vehicle: saline.

Molecules are shown by their SMILES. Where “and” joins values, the source holds several entries; their conditions need not be identical. Equal entries are not always repeated. Inconclusive results and toxic doses are left out.

Turning to `O=C(Nc1ccccc1F)c1ccc(C(=O)Nc2ccccc2F)cc1`, the T/C by setting is: under setting [1], 100 % of control; under setting [2], 105 % of control; under setting [3], 101 % of control.
As for `CCOC(=O)C(=O)CC(=O)/C=C/c1ccccc1`, the T/C is, setting by setting: under setting [4], 94 % of control; under setting [5], 97 % of control; under setting [6], 97 % of control.
`COc1cccc(OC)c1C(c1c(OC)cccc1OC)c1c(OC)cccc1OC`: the T/C by setting is: (dose: 25.0 mg/kg/injection, schedule: Q04DX003 (ip), vehicle: saline with Tween-80) 120 % of control; (dose: 50.0 mg/kg/injection, schedule: Q04DX003 (ip), vehicle: saline with Tween-80) 108 % of control; (dose: 100.0 mg/kg/injection, schedule: Q04DX003 (ip), vehicle: saline with Tween-80) 114 % of control.
`Cc1ccc(C(C)(C)C[P+](C)(c2ccccc2)c2ccccc2)cc1`: the T/C by setting is: under setting [7], 90 % of control; under setting [1], 94 % of control; under setting [2], 99 % of control; under setting [3], 93 % of control.
With `O=C(N[C@H](CO)[C@H](O)c1ccc([N+](=O)[O-])cc1)C(Cl)Cl`, the T/C runs as follows: under setting [4], 100 % of control; under setting [5], 99 % of control; under setting [6], 88 % of control; under setting [8], 88 % of control; (dose: 800.0 mg/kg/injection, schedule: Q01DX009 (ip), vehicle: saline with Tween-80) 87 % of control.
With `CCCCCC/C=C/C#CCCCCCCCC(=O)O`, the T/C runs as follows: (dose: 37.5 mg/kg/injection, schedule: Q01DX009 (ip), vehicle: Klucel (hydroxypropylcellulose) (HPC)) 107 % of control; (dose: 75.0 mg/kg/injection, schedule: Q01DX009 (ip), vehicle: Klucel (hydroxypropylcellulose) (HPC)) 99 % of control; (dose: 150.0 mg/kg/injection, schedule: Q01DX009 (ip), vehicle: Klucel (hydroxypropylcellulose) (HPC)) 101 % of control.
Regarding `Clc1ccc(Br)c(Cl)c1`, the T/C by setting is: under setting [9], 93 % of control; under setting [10], 93 % of control; under setting [11], 93 % of control.
For the molecule `Cc1cccc(C)c1NS(=O)(=O)c1ccccc1`, the T/C was 87 % of control under setting [10] and 92 % of control under setting [11].
For the molecule `CCOC(=O)C(C)Nc1ccccc1` (stereo not drawn), the T/C is 102 % of control under setting [9]; 91 % of control under setting [10]; 121 % of control (dose: 300.0 mg/kg/injection, schedule: Q01DX009 (ip), vehicle: Klucel (hydroxypropylcellulose) (HPC)).
Regarding `O=C(Nc1nccs1)C(F)(F)F`, the T/C under setting [12] is 98 % of control; the T/C under setting [13] was 106 % of control; the T/C (dose: 200.0 mg/kg/injection, schedule: Q01DX009 (ip), vehicle: saline) is 103 % of control; the T/C (dose: 400.0 mg/kg/injection, schedule: Q01DX009 (ip), vehicle: saline) is 97 % of control.
As to `CC(C)CN(C)/N=N/c1nc[nH]c1C(N)=O`, the T/C by setting is: (dose: 18.75 mg/kg/injection, schedule: Q01DX009 (ip), vehicle: carboxymethylcellulose (CMC)) 111 % of control; (dose: 75.0 mg/kg/injection, schedule: Q01DX009 (ip), vehicle: carboxymethylcellulose (CMC)) 123 % of control.
On to `C=C(C)/C([O-])=N/[N+](C)(C)CC(O)CCCCCCCCCCCC` (stereo not drawn), for which the T/C by setting is: (dose: 25.0 mg/kg/injection, schedule: Q01DX001 (ip), vehicle: saline) 91 % of control; (dose: 50.0 mg/kg/injection, schedule: Q01DX001 (ip), vehicle: saline) 95 % of control.
For the molecule `CC(C)(C)OC(=O)NC(CCC(N)=O)C(=O)ON1C(=O)CCC1=O` (stereo not drawn), the T/C is 100 % of control under setting [4], 93 % of control under setting [5], 97 % of control under setting [6] and 86 % of control under setting [8].
Turning to `O=C(Nc1cccc([N+](=O)[O-])c1)c1cc2ccccc2cc1O`, the T/C is 110 % of control under setting [5], 107 % of control under setting [6] and 105 % of control under setting [8].
Take `C1CN1P1(N2CC2)=NP(N2CC2)(N2CC2)=NP(N2CC2)(N2CC2)=N1`: the T/C is 87 % of control (dose: 0.25 mg/kg/injection, schedule: Q02DX009 (ip), vehicle: saline with Tween-80); 108 % of control (dose: 0.5 mg/kg/injection, schedule: Q01DX009 (ip), vehicle: saline with Tween-80); 101 % of control (dose: 0.5 mg/kg/injection, schedule: Q02DX009 (ip), vehicle: saline with Tween-80); 124 % of control (dose: 1.0 mg/kg/injection, schedule: Q01DX009 (ip), vehicle: saline with Tween-80); 87 % of control and 94 % of control (dose: 1.0 mg/kg/injection, schedule: Q02DX009 (ip), vehicle: saline with Tween-80); 123 % of control (dose: 2.0 mg/kg/injection, schedule: Q01DX009 (ip), vehicle: saline with Tween-80). Also, the T/C is, setting by setting: (dose: 2.0 mg/kg/injection, schedule: Q02DX009 (ip), vehicle: saline with Tween-80) 99 % of control and 122 % of control; (dose: 8.0 mg/kg/injection, schedule: Q01DX009 (ip), vehicle: saline with Tween-80) 170 % of control; (dose: 8.0 mg/kg/injection, schedule: Q02DX009 (ip), vehicle: saline with Tween-80) 153 % of control.
Regarding `CCOc1ccc(/C=N\N=C\c2ccc(OCC)cc2)cc1`, the T/C is, setting by setting: under setting [9], 95 % of control; under setting [10], 90 % of control and 110 % of control.
As for `Cc1c[n+]2c3ccccc3c3ccccc3c2s1`, the T/C is 105 % of control (dose: 10.0 mg/kg/injection, schedule: Q01DX009 (ip), vehicle: saline) and 105 % of control (dose: 20.0 mg/kg/injection, schedule: Q01DX009 (ip), vehicle: saline).
As to `CC(=O)Nc1cccc(OCCCOc2cccc(C(=N)N)c2)c1`, the T/C is, setting by setting: (dose: 9.37 mg/kg/injection, schedule: Q04DX003 (ip), vehicle: Klucel (hydroxypropylcellulose) (HPC)) 102 % of control; (dose: 18.75 mg/kg/injection, schedule: Q04DX003 (ip), vehicle: Klucel (hydroxypropylcellulose) (HPC)) 100 % of control; (dose: 37.5 mg/kg/injection, schedule: Q04DX003 (ip), vehicle: Klucel (hydroxypropylcellulose) (HPC)) 97 % of control; under setting [3], 102 % of control; under setting [9], 86 % of control.
Consider `Cc1c(Cl)cccc1NC(=O)Oc1cc(Cl)c(Cl)cc1Cl`, for which the T/C under setting [7] is 96 % of control; the T/C under setting [1] is 98 % of control; the T/C under setting [2] is 89 % of control and 98 % of control.
As to `CN(C)CCCN1Cc2ccccc2Cc2ccccc21`, the T/C runs as follows: (dose: 6.25 mg/kg/injection, schedule: Q01DX009 (ip), vehicle: saline) 105 % of control; (dose: 12.5 mg/kg/injection, schedule: Q01DX009 (ip), vehicle: saline) 103 % of control; (dose: 25.0 mg/kg/injection, schedule: Q01DX009 (ip), vehicle: saline) 111 % of control; under setting [12], 101 % of control; under setting [13], 107 % of control.
As to `CCCCCCCCCCCCCC(=O)CC`, the T/C is, setting by setting: (dose: 9.4 mg/kg/injection, schedule: Q01DX009 (ip), vehicle: saline with Tween-80) 95 % of control; (dose: 18.75 mg/kg/injection, schedule: Q01DX009 (ip), vehicle: saline with Tween-80) 87 % of control.
Turning to `CC1=C(/C=C/C(C)=C/C=C/C(C)=C/C=O)C(C)(C)CCC1`, the T/C (dose: 16.0 mg/kg/injection, schedule: Q01DX005 (ip), vehicle: DMSO) was 94 % of control; the T/C (dose: 32.0 mg/kg/injection, schedule: Q01DX005 (ip), vehicle: DMSO) was 88 % of control; the T/C (dose: 64.0 mg/kg/injection, schedule: Q01DX005 (ip), vehicle: DMSO) is 89 % of control.
With `CCOC(=O)NC(C)(C)CN(CCO)C(=O)OCC`, the T/C by setting is: (dose: 100.0 mg/kg/injection, schedule: Q04DX003 (ip), vehicle: Klucel (hydroxypropylcellulose) (HPC)) 102 % of control; (dose: 400.0 mg/kg/injection, schedule: Q04DX003 (ip), vehicle: Klucel (hydroxypropylcellulose) (HPC)) 100 % of control.
Take `Cc1ccc(C(=O)CCCCl)cc1C`: the T/C was 100 % of control under setting [5], 106 % of control under setting [6] and 97 % of control under setting [8].
As for `CCN(CC)CCOC(=O)c1ccccc1N(c1ccccc1)c1ccccc1`, the T/C was 102 % of control (dose: 62.5 mg/kg/injection, schedule: Q01DX009 (ip), vehicle: saline sonified); 89 % of control (dose: 125.0 mg/kg/injection, schedule: Q01DX009 (ip), vehicle: saline sonified); 89 % of control (dose: 250.0 mg/kg/injection, schedule: Q01DX009 (ip), vehicle: saline sonified).
